Data set [1] can be described thus: Metabolic stability in mouse liver microsomes. The class given is in vitro ADME. Background: Microsomes from liver hold many membrane-bound enzymes, among them those of drug oxidation.
The subject of data set [2] is Hh target gene Ptch1 expression in NIH3T3-E1 cells. Description: Inhibition of CAPAN-1 conditioned medium-induced Ptch1 mRNA expression, Q-RT-PCR. The class given is cell-based, mouse. The note with it: CAPAN-1 CM, 72 h. An excerpt:
NIH3T3-E1 fibroblasts were obtained from ATCC (Manassas, VA) and cultured, as previously described. CAPAN-1 and PANC-1 human pancreatic cancer cells were obtained from ATCC and cultured in Dulbecco’s Modified Eagle Medium (DMEM) containing 10% heat-inactivated fetal bovine serum (FBS) (Hyclone Laboratories, Logan, UT, USA) and antibiotics, as previously described. The human lung cancer cell lines A549 and H2030 were obtained from ATCC and cultured in RPMI-1640 containing 10% FBS. The human hepatoma cell line HepG2 was obtained from ATCC and cultured in DMEM containing 10% FBS. […]
Total RNA was extracted with the RNeasy Plus Mini Kit from Qiagen, according to the manufacturer’s instructions. […] The cDNAs were then mixed with Qi SYBR Green Supermix (Bio-Rad, Hercules, CA, USA) for quantitative RT-PCR assay using a Bio-Rad I-cycler IQ quantitative thermocycler. […] Fold changes in gene expression were calculated using the ΔΔCt method. […]
Figure 3 Inhibition of ligand-induced Hedgehog signaling. […] After 72 h, RNA was extracted and analyzed by Q-RT-PCR for the expression of Hh target genes Gli1 (a,b,d) and Ptch1 (c), and normalized to Oaz1 expression. […] Luciferase activity was measured and normalized to the Renilla luciferase activity. […]

For orientation: share remaining means what is left of the initial amount, in per cent. As a reminder, the half-life is how long it takes for the measured level to halve. For `C[C@]12CC[C@H](O)C[C@@H]1CC[C@@H]1[C@@H]2CC[C@@]2(C)[C@H]1CC[C@@H]2[C@](C)(O)CCc1ccc(F)cc1` [Oxy186, (3S,5S,8R,9S,10S,13S,14S,17S)-17-((R)-4-(4-fluorophenyl)-2-hydroxybutan-2-yl)-10,13-dimethylhexadecahydro-1H-cyclopenta[a]phenanthren-3-ol], the share remaining at 1 h in data set [1] (60 min, read-out: MLM, % Remaining after 60 min) is 50%. The half-life in data set [1] (read-out: MLM, Half-Life) turned out to be 60 min. Further, the “Inhibition of ligand-induced Ptch1 mRNA expression” value in data set [2] was “robustly inhibited”.

These data come from article PMC6562610, “Inhibition of Hedgehog Signaling in Fibroblasts, Pancreatic, and Lung Tumor Cells by Oxy186, an Oxysterol Analogue with Drug-Like Properties” (Cells, 2019).
